Assay results reported in patent publication US11873298B2, “Compounds and uses thereof” (JANSSEN PHARMACEUTICA NV, priority 2017, dated 2024).
“And” between values parts separate entries of the source, which are not always exact repeats. Equal values may be shown once.

What was measured:
Type in all cases: cell-based
Ole1 = target: T1, Ole1 (Saccharomyces cerevisiae, UniProt P21147); test: Growth inhibition of yeast strain expressing Ole1 as sole desaturase; settings: yeast strain expressing Ole1 as sole desaturase
T1 construct: expressed in transfected cells; host or cells: S. cerevisiae ole1Δ strain (W303 pdr1Δ pdr3Δ background), plasmid pRS316 with TDH3 promoter and CYC1 terminator
T1 sequence (P21147 1-510): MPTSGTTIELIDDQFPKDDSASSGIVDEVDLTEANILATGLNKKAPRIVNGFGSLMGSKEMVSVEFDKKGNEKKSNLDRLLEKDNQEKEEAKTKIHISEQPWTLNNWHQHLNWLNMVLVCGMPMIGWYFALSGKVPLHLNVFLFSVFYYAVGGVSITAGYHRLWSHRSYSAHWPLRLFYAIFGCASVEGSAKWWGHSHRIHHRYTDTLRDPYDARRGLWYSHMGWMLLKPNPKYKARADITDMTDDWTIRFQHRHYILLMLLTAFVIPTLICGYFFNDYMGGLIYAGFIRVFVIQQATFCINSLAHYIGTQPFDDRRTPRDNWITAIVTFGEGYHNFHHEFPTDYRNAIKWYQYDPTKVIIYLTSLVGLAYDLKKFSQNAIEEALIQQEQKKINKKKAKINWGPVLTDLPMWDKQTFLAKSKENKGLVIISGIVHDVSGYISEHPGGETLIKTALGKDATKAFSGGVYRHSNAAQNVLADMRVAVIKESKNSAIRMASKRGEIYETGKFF
Procedure, shortened: (§1)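 OD600 growth read-out. ole1Δ yeast, pdr1Δ pdr3Δ, with Ole1/SCD1/SCD5 on a plasmid; SX-Ura media throughout; 2× cell density 0.02 in CSM-Galactose; DMSO compound dilutions; humidified 30° C.; Ole1 stopped at 24 h, SCD1/SCD5 at 40 h.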

SCD1 = target: T2, SCD1 (Homo sapiens, UniProt O00767); test: Growth inhibition of humanized yeast strain expressing SCD1 as sole desaturase; settings: humanized yeast strain expressing SCD1
T2 construct: host or cells: S. cerevisiae ole1Δ strain (W303 pdr1Δ pdr3Δ background), plasmid pRS316 with TDH3 promoter and CYC1 terminator
T2 sequence (O00767 1-359): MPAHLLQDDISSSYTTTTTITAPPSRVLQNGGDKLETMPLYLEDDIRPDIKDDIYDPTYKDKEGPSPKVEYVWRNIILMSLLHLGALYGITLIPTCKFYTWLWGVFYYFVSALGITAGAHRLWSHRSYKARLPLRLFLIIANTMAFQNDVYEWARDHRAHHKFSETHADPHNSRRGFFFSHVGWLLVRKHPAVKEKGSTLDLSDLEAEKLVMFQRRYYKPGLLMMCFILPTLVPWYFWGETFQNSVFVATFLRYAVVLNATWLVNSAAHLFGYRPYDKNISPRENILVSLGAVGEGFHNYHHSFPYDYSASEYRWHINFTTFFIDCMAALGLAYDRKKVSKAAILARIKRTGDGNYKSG
Procedure, shortened: as §1

SCD5 = target: T3, SCD5 (Homo sapiens, UniProt Q86SK9); test: Growth inhibition of humanized yeast strain expressing SCD5 as sole desaturase; settings: humanized yeast strain expressing SCD5
T3 construct: host or cells: S. cerevisiae ole1Δ strain (W303 pdr1Δ pdr3Δ background), plasmid pRS316 with TDH3 promoter and CYC1 terminator
T3 sequence (Q86SK9 1-330): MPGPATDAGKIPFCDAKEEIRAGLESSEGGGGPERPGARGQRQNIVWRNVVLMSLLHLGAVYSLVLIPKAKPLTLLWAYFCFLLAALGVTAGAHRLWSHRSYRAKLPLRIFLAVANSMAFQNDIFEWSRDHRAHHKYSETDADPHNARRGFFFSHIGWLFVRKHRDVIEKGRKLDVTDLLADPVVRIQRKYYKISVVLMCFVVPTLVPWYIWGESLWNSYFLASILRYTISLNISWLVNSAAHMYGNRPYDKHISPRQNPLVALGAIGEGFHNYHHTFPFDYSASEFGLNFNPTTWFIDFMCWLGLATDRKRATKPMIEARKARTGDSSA
Procedure, shortened: as §1

Row | Structure (SMILES) | IC50 (Ole1) | OLE1 % Max Inhibition (Ole1) | SCD1 % Max Inhibition (SCD1) | IC50 (SCD5) | SCD5 % Max Inhibition (SCD5) | IC50 (SCD1)
1 | Cc1nn(C)c2cc(-c3noc(C4CCN(C(=O)CNC(=O)c5ccccc5C(F)(F)F)CC4)n3)ccc12 [Compound 271] | > 45 µM | 11.7% | 67.9% | > 45 µM | 53.6% | –
2 | Cc1nn(C)c2cc(-c3noc(C4CCN(C(=O)[C@@H]5CC(=O)N(c6cccc(C#N)c6)C5)CC4)n3)ccc12 [Compound 306] | > 45 µM | 33.2% and 36.88% | 67.6% and 63.32% | > 45 µM | – | ≥ 45 µM
3 | CCN(Cc1nc(-c2ccc3c(c2)N(CC)C(=O)CO3)no1)C(=O)Cc1cccc2ccccc12 [Compound 494] | > 45 µM | 92.28% | 79.67% | > 45 µM | 73.76% | –
4 | Cc1nn(C)c2cc(-c3noc(C4CCN(C(=O)CNC(=O)c5ccncc5)CC4)n3)ccc12 [Compound 198] | > 45 µM | 2.96% | 71.25% | > 45 µM | 36.45% | > 45 µM
5 | Cc1nn(C(C)C)c2cc(-c3noc(C4CCN(C(=O)OC(C)(C)C)CC4)n3)ccc12 [Compound 343] | > 45 µM | 84.7% | 59.1% | > 45 µM | 23.2% | –
6 | CC(C)(CO)n1cc2ccc(-c3noc(C4CCN(C(=O)CNC(=O)c5ccccc5)CC4)n3)cc2n1 [Compound 202] | > 45 µM | 94.93% | 74.09% | > 45 µM | 74.20% | > 45 µM
7 | CCOc1cc(-c2noc(C3CCN(C(=O)CNC(=O)c4ccccc4)CC3)n2)ccc1OC [Compound 199] | > 45 µM | 24.34% | 27.85% | > 45 µM | 3.87% | > 45 µM
8 | Cc1nn(C)c2cc(-c3noc(N4CCC(C(=O)N5CCO[C@H](c6ccccc6)C5)CC4)n3)ccc12 [Compound 211] | > 45 µM | 2.65% | 39.99% | > 45 µM | 6.95% | > 45 µM
9 | O=C(C1CC(=O)N(c2ccccc2)C1)N1CCC(c2nc(-c3ccc4c(c3)COC4)no2)CC1 (stereo not drawn) [Compound 220] | > 45 µM | 3.10% | 87.27% | > 45 µM | 13.65% | > 45 µM
10 | CC(C)c1cccc(C(=O)N2CCC(c3nc(-c4ccc5cnn(C)c5c4)no3)CC2)c1 [Compound 205] | > 45 µM | 94.02% | 31.70% | > 45 µM | 1.01% | > 45 µM
11 | CCN(Cc1nc(-c2ccc(OC)c(OC)c2)no1)C(=O)Cc1ccccc1 [Compound 492] | > 45 µM | 106.45% | 83.92% | > 45 µM | 75.64% | –
12 | CCOc1ccc(-c2noc(C3CCN(C(=O)CN4Cc5cc(F)ccc5C4=O)CC3)n2)cc1OC [Compound 176] | > 45 µM | 3.62% | 107.22% | > 45 µM | 83.50% | > 45 µM
13 | Cc1nn(C)c2cc(-c3noc(N4CCN(C(=O)c5ccccc5)CC4)n3)ccc12 [Compound 261] | > 45 µM | 94.41% | 73.42% | > 45 µM | 82.31% | –
